We go through six compounds from ChEMBL document CHEMBL1153072, “Synthesis and structure-activity relationship of dicationic diaryl ethers as novel potent anti-MRSA and anti-VRE agents” (2009).

Values after ≈ are worked out from the molar mass of the structure shown.

Common to all, as to type: functional
Assay [1] relates to Staphylococcus aureus. The experiment in a line: Antibacterial activity against methicillin-resistant Staphylococcus aureus ATCC 33591.
For assay [2], the system named is Staphylococcus aureus. The experiment in a line: Antibacterial activity against Staphylococcus aureus ATCC 29213.
Assay [3] has as its system Bacteroides fragilis. Briefly: Antibacterial activity against […] ATCC 23745.
For assay [4], the system named is Streptococcus pneumoniae. Briefly: Antibacterial activity against Streptococcus pneumoniae ATCC 6301.
For assay [5], the system named is Clostridium perfringens. The experiment in a line: Antibacterial activity against Clostridium perfringens ATCC 10388.
Assay [6] deals with Bacillus subtilis. The experiment in a line: Antibacterial activity against Bacillus subtilis ATCC 23857.
Assay [7] has as its system Staphylococcus epidermidis. Briefly: Antibacterial activity against Staphylococcus epidermidis ATCC 12228.
Assay [8] deals with Enterococcus faecium. Briefly: Antibacterial activity against vancomycin-resistant Enterococcus faecium ATCC 700221.
The test system of assay [9] is Candida albicans. The experiment in a line: Antifungal activity against Candida albicans ATCC 90028.
For assay [10], the system named is Enterococcus faecalis. The experiment in a line: Antibacterial activity against vancomycin-resistant Enterococcus faecalis ATCC 51575.
The test system of assay [11] is Staphylococcus aureus. The experiment in a line: Antibacterial activity against multidrug resistant Staphylococcus aureus BAA-39.
Assay [12] relates to Bacillus cereus. The experiment in a line: Antibacterial activity against Bacillus cereus ATCC 11778.
Assay [13] concerns Staphylococcus epidermidis. The experiment in a line: Antibacterial activity against methicillin-resistant Staphylococcus epidermidis ATCC 51625.

Usually MIC stands for the least concentration at which growth counts as inhibited. As for `CC1(C)S[C@@H]2[C@H](NC(=O)Cc3ccccc3)C(=O)N2[C@H]1C(=O)O` [PENICILLIN G], the MIC is over 32 µg/mL in assay [1]; 1 µg/mL (≈ 2.99 µM) in [2]; 4 µg/mL (≈ 12 µM) in assay [3]; under 0.06 µg/mL in assay [4]; under 0.12 µg/mL in assay [5]; under 0.06 µg/mL in assay [6]. The MIC was 32 µg/mL (≈ 95.7 µM) in assay [7]; over 32 µg/mL in [8]; over 32 µg/mL in assay [9]; 4 µg/mL (≈ 12 µM) in [10]; over 32 µg/mL in assay [11]; over 4 µg/mL in assay [12]. Moreover, in assay [13], inhibition of growth (MIC) required 32 µg/mL (≈ 95.7 µM).

Consider `CC(C)NC(=N)c1ccc2[nH]c(-c3ccc(Oc4ccc(-c5nc6cc(C(=N)NC(C)C)ccc6[nH]5)cc4Cl)cc3)nc2c1`, for which the MIC in [1] was 0.25 µg/mL (≈ 0.413 µM); in assay [2], 0.25 µg/mL (≈ 0.413 µM); in [3], 16 µg/mL (≈ 26.4 µM); in [4] it was at most 0.06 µg/mL; in [5] it was 0.5 µg/mL (≈ 0.826 µM); in [6], 0.12 µg/mL (≈ 0.198 µM). Further, the MIC in [7] is at most 0.06 µg/mL; in [8] it was at most 0.06 µg/mL; in assay [9], 1 µg/mL (≈ 1.65 µM); in [10] it was 0.25 µg/mL (≈ 0.413 µM); in assay [11] it was 0.25 µg/mL (≈ 0.413 µM); in assay [12], 0.12 µg/mL (≈ 0.198 µM). In assay [13], this compound gave an MIC of at most 0.06 µg/mL.

On to `CC(C)NC(=N)c1ccc2[nH]c(-c3ccc(Oc4ccc(-c5nc6cc(C(=N)NC(C)C)ccc6[nH]5)cc4)cc3)nc2c1`, for which the MIC in assay [1] was 0.12 µg/mL (≈ 0.21 µM); in [2], 0.25 µg/mL (≈ 0.438 µM); in assay [3], 2 µg/mL (≈ 3.5 µM); in [4], under 0.06 µg/mL; in assay [5] it was 0.5 µg/mL (≈ 0.876 µM); in [6], under 0.06 µg/mL. Also, the MIC in [7] was under 0.06 µg/mL; in assay [8], under 0.06 µg/mL; in assay [9], 1 µg/mL (≈ 1.75 µM); in assay [10] it was 0.12 µg/mL (≈ 0.21 µM); in [11], 0.5 µg/mL (≈ 0.876 µM); in [12], under 0.06 µg/mL. Also, in assay [13], the MIC is under 0.06 µg/mL.

On to `CCC(CC)NC(=N)c1ccc2[nH]c(-c3ccc(Oc4ccc(-c5nc6cc(C(=N)NC(CC)CC)ccc6[nH]5)cc4)cc3)nc2c1`, for which the MIC in assay [1] is 0.25 µg/mL (≈ 0.399 µM); in assay [2] it was 0.25 µg/mL (≈ 0.399 µM); in assay [3] it was 4 µg/mL (≈ 6.38 µM); in [4], under 0.06 µg/mL; in assay [5], 0.5 µg/mL (≈ 0.798 µM); in [6], 0.12 µg/mL (≈ 0.191 µM). The MIC in assay [7] is 0.12 µg/mL (≈ 0.191 µM); in [8] it was under 0.06 µg/mL; in [9], 4 µg/mL (≈ 6.38 µM); in assay [10], 0.5 µg/mL (≈ 0.798 µM); in assay [11], 0.5 µg/mL (≈ 0.798 µM); in [12] it was 0.5 µg/mL (≈ 0.798 µM). Moreover, the MIC in assay [13] came to 0.25 µg/mL (≈ 0.399 µM).

Consider `O=C(O)c1cn(C2CC2)c2cc(N3CCNCC3)c(F)cc2c1=O` [CIPROFLOXACIN], for which the MIC in [1] was at most 0.12 µg/mL; in assay [2], 0.5 µg/mL (≈ 1.51 µM); in assay [3] it was 0.5 µg/mL (≈ 1.51 µM); in [6], at most 0.12 µg/mL; in assay [7], at most 0.12 µg/mL; in assay [8] it was over 64 µg/mL. Moreover, the MIC in assay [10] is 0.5 µg/mL (≈ 1.51 µM); in assay [11], 8 µg/mL (≈ 24.1 µM); in [12], at most 0.12 µg/mL; in [13], at most 0.12 µg/mL.

As for `CN[C@H](CC(C)C)C(=O)N[C@H]1C(=O)N[C@@H](CC(N)=O)C(=O)N[C@H]2C(=O)N[C@H]3C(=O)N[C@H](C(=O)N[C@H](C(=O)O)c4cc(O)cc(O)c4-c4cc3ccc4O)[C@H](O)c3ccc(c(Cl)c3)Oc3cc2cc(c3O[C@@H]2O[C@H](CO)[C@@H](O)[C@H](O)[C@H]2O[C@H]2C[C@](C)(N)[C@H](O)[C@H](C)O2)Oc2ccc(cc2Cl)[C@H]1O` [VANCOMYCIN], the MIC is 4 µg/mL (≈ 2.76 µM) in assay [3]; 1 µg/mL (≈ 0.69 µM) in assay [4]; 0.12 µg/mL (≈ 0.0828 µM) in assay [5]; 0.12 µg/mL (≈ 0.0828 µM) in assay [6]; over 64 µg/mL in assay [8]; over 32 µg/mL in assay [9]. The MIC in [10] was over 64 µg/mL; in assay [12], at most 1 µg/mL.
